19 compounds from patent US20150352108A1, “AMINO-PYRIMIDINE COMPOUNDS AS INHIBITORS OF TBK1 AND/OR IKK EPSILON” (Alzheimer's Institute of America, priority 2009, published 2015) can be followed below.

One experiment has as its target T1, IKKε (Homo sapiens, UniProt Q14164).
T1 construct: His-tag; made in house; host or cells: Sf9 insect cells
T1 sequence (Q14164 1-716): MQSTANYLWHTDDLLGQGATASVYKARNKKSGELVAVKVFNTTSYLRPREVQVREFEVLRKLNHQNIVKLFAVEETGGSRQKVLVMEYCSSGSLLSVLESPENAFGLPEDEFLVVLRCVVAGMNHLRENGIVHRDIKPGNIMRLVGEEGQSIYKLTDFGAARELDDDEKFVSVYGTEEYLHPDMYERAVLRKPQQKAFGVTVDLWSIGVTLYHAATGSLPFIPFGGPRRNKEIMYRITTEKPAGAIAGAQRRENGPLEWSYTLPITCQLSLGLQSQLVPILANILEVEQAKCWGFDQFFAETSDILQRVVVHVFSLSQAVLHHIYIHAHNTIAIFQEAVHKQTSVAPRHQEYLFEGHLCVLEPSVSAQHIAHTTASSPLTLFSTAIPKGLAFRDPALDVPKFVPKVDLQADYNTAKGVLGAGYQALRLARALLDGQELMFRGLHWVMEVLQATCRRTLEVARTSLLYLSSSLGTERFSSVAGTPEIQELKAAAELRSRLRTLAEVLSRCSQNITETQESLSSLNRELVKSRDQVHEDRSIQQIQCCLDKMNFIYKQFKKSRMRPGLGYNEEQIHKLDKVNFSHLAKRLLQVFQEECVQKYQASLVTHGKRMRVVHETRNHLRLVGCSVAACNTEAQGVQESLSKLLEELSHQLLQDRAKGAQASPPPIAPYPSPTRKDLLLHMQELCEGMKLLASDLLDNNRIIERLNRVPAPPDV
Nature of the experiment: In-vitro IKKε kinase assay ([γ33]ATP filter-plate). The format is biochemical. As to conditions: text bins; read-out: IC50 for inhibition of the kinase activity of IKKε. The essentials:
(§1)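 His-tagged IKKε and TBK1 from Sf9 cells were assayed with myelin basic protein or casein and [γ33]ATP at 2×Km ATP (32 μM for IKKε, 60 μM for TBK1). Enzyme was 0.1 or 0.015 μg/ml for IKKε and 0.1 or 0.02 μg/ml for TBK1 (normal/sensitized). Reactions ran 30-45 min, were filter-captured, scintillation-counted, and normalized to DMSO after background subtraction.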

The target in a further experiment is T2, TBK1 (Homo sapiens, UniProt Q9UHD2).
T2 construct: His-tag; made in house; host or cells: Sf9 insect cells
T2 sequence (Q9UHD2 1-729): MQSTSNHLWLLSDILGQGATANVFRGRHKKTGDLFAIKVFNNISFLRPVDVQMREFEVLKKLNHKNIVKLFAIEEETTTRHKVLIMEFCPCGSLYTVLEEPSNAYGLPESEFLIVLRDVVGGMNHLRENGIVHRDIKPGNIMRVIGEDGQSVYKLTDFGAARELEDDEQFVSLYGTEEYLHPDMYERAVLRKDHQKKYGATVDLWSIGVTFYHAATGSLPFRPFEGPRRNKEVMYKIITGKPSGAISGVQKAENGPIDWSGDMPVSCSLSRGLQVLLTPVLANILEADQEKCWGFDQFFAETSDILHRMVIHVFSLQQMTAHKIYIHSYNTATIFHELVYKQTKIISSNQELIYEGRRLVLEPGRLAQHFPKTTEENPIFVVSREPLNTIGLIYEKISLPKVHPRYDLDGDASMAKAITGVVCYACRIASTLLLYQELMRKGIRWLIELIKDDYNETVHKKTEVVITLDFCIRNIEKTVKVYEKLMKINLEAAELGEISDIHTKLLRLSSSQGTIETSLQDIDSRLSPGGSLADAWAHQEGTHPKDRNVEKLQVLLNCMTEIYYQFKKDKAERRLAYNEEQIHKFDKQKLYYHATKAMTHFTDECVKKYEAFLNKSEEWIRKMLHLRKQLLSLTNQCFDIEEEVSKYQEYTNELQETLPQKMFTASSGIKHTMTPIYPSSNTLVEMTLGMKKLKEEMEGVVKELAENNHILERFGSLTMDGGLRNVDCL
In words: In-vitro TBK1 kinase assay ([γ33]ATP filter-plate). To be noted: text bins; read-out: IC50 for inhibition of the kinase activity of TBK1. It is filed as biochemical. The essentials: as §1

Structures are written as SMILES.

Usually IC50 stands for the concentration needed to halve the response being measured. On to `CS(=O)(=O)N1CCC(COc2ccc(-c3ccnc(Nc4ccc(N5CCOCC5)cc4)n3)cc2C#N)CC1` [Example 76, 2-{[1-(methylsulfonyl)piperidin-4-yl]methoxy}-5-(2-{[4-(morpholin-4-yl)phenyl]amino}pyrimidin-4-yl)benzonitrile], for which the half-maximal inhibitory concentration (IC50) on IKKε was below 5 nM; at TBK1, below 10 nM.

On to `COc1cc(Nc2nccc(-c3ccc(OCCO)c(C#N)c3)n2)ccc1N1CCNC(=O)C1` [compound 296, 2-(2-Hydroxyethoxy)-5-(2-{[3-methoxy-4-(3-oxopiperazin-1-yl)phenyl]amino}pyrimidin-4-yl)benzonitrile], for which the half-maximal inhibitory concentration (IC50) on IKKε was 5 to 50 nM; at TBK1 it was below 10 nM.

For `N#Cc1cc(-c2ccnc(Nc3ccc(N4CCOCC4)cc3)n2)ccc1OCC1CCN(C(=O)CO)C1` (centres unmarked) [compound 461, 2-{[1-(hydroxyacetyl)pyrrolidin-3-yl]methoxy}-5-(2-{[4-(morpholin-4-yl)phenyl]amino}pyrimidin-4-yl)benzonitrile], the IC50 is 5 to 50 nM on IKKε and below 10 nM on TBK1.

Consider `COc1cc(Nc2nccc(-c3ccc(OC4CCN(C(C)=O)CC4)c(C#N)c3)n2)ccc1N1CCNC(=O)C1` [Example 134, 2-[(1-Acetylpiperidin-4-yl)oxy]-5-(2-{[3-methoxy-4-(3-oxopiperazin-1-yl)phenyl]amino}pyrimidin-4-yl)benzonitrile], for which the figures for the IC50 on IKKε and on TBK1 were below 5 nM and below 10 nM, respectively.

On to `CN(C)C(=O)CN(C)c1ccc(Nc2nccc(-c3ccc(OC4CCOCC4)c(C#N)c3)n2)cc1` [Example 82, N~2~-[4-({4-[3-cyano-4-(tetrahydro-2H-pyran-4-yloxy)phenyl]pyrimidin-2-yl}amino)phenyl]-N,N,N~2~- trimethylglycinamide], for which the 50% inhibitory concentration (IC50) at IKKε was below 5 nM; on TBK1, below 10 nM.

As for `N#Cc1cc(-c2ccnc(Nc3ccc(S(=O)(=O)N4CCOCC4)cc3)n2)ccc1OC1CCOCC1` [compound 363, 5-(2-{[4-(morpholin-4-ylsulfonyl)phenyl]amino}pyrimidin-4-yl)-2-(tetrahydro-2H-pyran-4-yloxy)benzonitrile], the IC50 on IKKε was 5 to 50 nM; on TBK1, below 10 nM.

Take `N#Cc1cc(-c2ccnc(Nc3ccc(F)c(OCC(O)CO)c3)n2)ccc1OC1CCOCC1` (centres unmarked) [compound 608, 5-(2-{[3-(2,3-Dihydroxypropoxy)-4-fluorophenyl]amino}pyrimidin-4-yl)-2-(tetrahydro-2H-pyran-4-yloxy)benzonitrile]: the IC50 was below 5 nM at IKKε and below 10 nM on TBK1.

As to `Cc1nnsc1C(=O)Nc1ccc(-c2ccnc(Nc3ccc(N4CCOCC4)cc3)n2)cc1C#N` [Example 129, N-[2-cyano-4-(2-{[4-(morpholin-4-yl)phenyl]amino}pyrimidin-4-yl)phenyl]-4-methyl-1,2,3-thiadiazol-5-carboxamide], the figures for the 50% inhibitory concentration (IC50) at IKKε and on TBK1 were below 5 nM and below 10 nM, respectively.

In the case of `CC(C)C(=O)Nc1ccc(-c2ccnc(Nc3cccc(CC(=O)NCCCN4CCOCC4)c3)n2)cc1C#N` [compound 422, N-[2-cyano-4-(2-{[3-(2-{[3-(morpholin-4-yl)propyl]amino}-2-oxoethyl)phenyl]amino}pyrimidin-4-yl)phenyl]-2-methylpropanamide], the half-maximal inhibitory concentration (IC50) on IKKε was in the range of 5 to 50 nM; on TBK1 it was 10 to 100 nM.

For `N#Cc1cc(-c2ccnc(Nc3ccc(N4CCOCC4)cc3)n2)ccc1O` [Example 130, 2-Hydroxy-5-(2-{[4-(morpholin-4-yl)phenyl]amino}pyrimidin-4-yl)benzonitrile], the IC50 was below 5 nM on IKKε and below 10 nM at TBK1.

As to `COc1cc(Nc2nccc(-c3ccc(OC4CCOCC4)c(C#N)c3)n2)ccc1C(=O)NCc1cccnc1` [Example 275, 4-({4-[3-cyano-4-(tetrahydro-2H-pyran-4-yloxy)phenyl]pyrimidin-2-yl}amino)-2-methoxy-N-(pyridin-3-ylmethyl)benzamide], the IC50 at IKKε was below 5 nM; at TBK1, below 10 nM.

With `CNc1ccc(-c2ccnc(Nc3ccc(OC)c(OC)c3)n2)cc1C#N` [Example 107, 5-{2-[(3,4-Dimethoxyphenyl)amino]pyrimidin-4-yl}-2-(methylamino) benzonitrile], the half-maximal inhibitory concentration (IC50) at IKKε was below 5 nM; on TBK1, below 10 nM.

Turning to `COc1ccc(-c2ccnc(Nc3ccc(S(=O)(=O)NCCCN)c(OC)c3)n2)cc1C#N` [compound 383, N-(3-Aminopropyl)-4-{[4-(3-cyano-4-methoxyphenyl)pyrimidin-2-yl]amino}-2-methoxybenzene-sulfonamide], the results for the IC50 at IKKε and at TBK1 were 5 to 50 nM and 10 to 100 nM, respectively.

Take `N#Cc1cccc(-c2ccnc(Nc3ccc4[nH]ncc4c3)n2)c1` [compound 387, 3-[2-(1H-Indazol-5-ylamino)pyrimidin-4-yl]benzonitrile]: the IC50 lay in the range of 5 to 50 nM on IKKε and 100 to 500 nM on TBK1.

For `N#Cc1cccc(-c2ccnc(Nc3ccc(N)cc3)n2)c1` [Example 55, 3-{2-[(4-Aminophenyl)amino]pyrimidin-4-yl}benzonitrile], the half-maximal inhibitory concentration (IC50) lay in the range of 50 to 500 nM on IKKε and 100 to 500 nM at TBK1.

Turning to `COc1ccc(-c2ccnc(Nc3cccc(NC(C)=O)c3)n2)cc1C#N` [Example 70, N-(3-{[4-(3-Cyano-4-methoxyphenyl)pyrimidin-2-yl]amino}phenyl) acetamide], the figures for the IC50 on IKKε and on TBK1 were 5 to 50 nM and 10 to 100 nM, respectively.

Consider `CNc1ccc(-c2ccnc(Nc3ccc(N4CCOCC4)cc3)n2)cc1C#N` [Example 218, 2-(Methylamino)-5-(2-{[4-(morpholin-4-yl)phenyl]amino}pyrimidin-4-yl)benzonitrile], for which the concentration for half-maximal inhibition (IC50) is 5 to 50 nM at IKKε and below 10 nM at TBK1.

For `COc1cc(NC(=O)NCCCN)cc(Nc2nccc(-c3ccc(OC)c(C#N)c3)n2)c1` [compound 320, 1-(3-Aminopropyl)-3-(3-{[4-(3-cyano-4-methoxyphenyl)pyrimidin-2-yl]amino}-5-methoxyphenyl)urea], the IC50 lay within 50 to 500 nM on IKKε and 10 to 100 nM on TBK1.

On to `N#Cc1cc(-c2ccnc(Nc3ccc(N4CCOCC4)cc3)n2)ccc1OCC[C@H]1CCCCN1C(=O)CO` [compound 448, 2-{2-[(2R)-1-(hydroxyacetyl)piperidin-2-yl]ethoxy}-5-(2-{[4-(morpholin-4-yl)phenyl]amino}pyrimidin-4-yl)benzonitrile], for which the IC50 is 50 to 500 nM on IKKε and 10 to 100 nM on TBK1.
